Data as given in paper PMC12058161, “The plant matrix of Artemisia annua L. for the treatment of malaria: Pharmacodynamic and pharmacokinetic studies” (PLOS One, 2025).
“And” between values parts separate entries of the source, which are not always exact repeats. Equal values may be shown once. Read-outs that look alike come from different tables or passages of the source.

Columns and labels:
[1] = Pharmacokinetic study in rats after oral administration (UHPLC-ESI-MS/MS of plasma); settings: for half-life: male, Sprague Dawley, rat, in vivo, po
Method: (§1) Blood samples were centrifuged at 3500 rpm for 5 min at 4°C. All plasma samples were then stored at -80°C until analysis.
(§2) All samples were stored in a refrigerator at -80°C and thawed at room temperature before processing. A 50 μL aliquot of plasma was added with 5 μL of the standard solution (or acetonitrile) and 100 μL of internal standard solution in turn, vortexed and mixed, then sonicated for 3 min, centrifuged at 14000 rpm for 10 min at low temperature. The supernatant was transferred to an autosampler vial and analyzed by UHPLC-ESI-MS/MS.
(§3) The mobile phase consisted of 0.1% formic acid solution (A) and acetonitrile (B).
(§4) The ESI ionization source was used and detected in MRM mode.
(§5) All data were presented as mean ± SD. Pharmacokinetic parameters including half-life (t1/2), maximum plasma time (Tmax) and concentration (Cmax), area under concentration-time curve (AUC0-t and AUC0-∞), clearance (CL), steady-state volume of distribution (Vz), and mean residence time (MRT) were analyzed by non-compartmental method using DAS Version 2.0 (Chinese Pharmacological Society, Beijing, China). […] The data were analyzed by Student’s t-test for two groups and one-way analysis of variance for multiple groups; p < 0.05 was considered statistically significant.

Caco-2 cells = test: Cytotoxicity in Caco-2 cells, CCK-8 assay; type: cell-based, human; settings: for Cell survival rate%: mean; for cck-8 mean (survival fraction): mean of 6
Method in brief: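 Caco-2 cells, pre-grown 48 h, were exposed to compounds for 48 h at 37 °C with 0.05% v/v DMSO final. Viability was measured by CCK-8 (2 h, absorbance 450 nm) relative to negative-control cells.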

[2] = male, Sprague Dawley, rat, in vivo
Method: as §1, §2, §3, §4, §5

in vivo = settings: male, Sprague Dawley, rat, po; for MRT last: MRT(0-t); for MRT inf: MRT(0-∞)
Method: as §1, §2, §3, §4, §5

[3] = system: Plasmodium berghei (P. berghei); test: Peters' four-day inhibition method, P. berghei murine malaria model; type: in vivo, ICR mice; settings: individual mice
Method: In vivo evaluation of antimalarial activity was performed using the classical Peters’ four-day inhibition method. A murine malaria model was constructed by intraperitoneal injection of 5.00 × 10^7 Plasmodium yoelii (P. yoelii)- or Plasmodium berghei (P. berghei)-infected erythrocytes. […] Mice were gavaged once 4 hours after infection with medicated soybean oil or the test drug (gavage standard was 0.20 mL/10 g), and the drug was administered orally for 4 consecutive days. Four hours after the last dose, blood was collected from the tail tip of the mice to make a thin blood smear. The smear was air-dried, fixed in methanol, stained with Giemsa for 30 minutes, then rinsed with distilled water, air-dried at room temperature, and visualized for malaria infection under a microscope (OLYMPUS BX43) at 100x oil immersion. The inhibition ratio (%) for each group was calculated using the following equations:
Inhibitionratio(%)=(infectionratiocontrolgroup−infectionratiotreatmentgroup)/infectionratiocontrolgroup×100

[4] = Stability of the five compounds in SD rat plasma (QC samples, UHPLC-ESI-MS/MS); type: in vitro ADME; settings: for 3 freeze-thaw cycles mean ± SD / 7 days at -80°C mean ± SD / Room temperature 24h mean ± SD: SD rat plasma QC sample; for stability, Accuracy (measured versus nominal concentration) / stability, mean ± SD (measured concentration): SD rat plasma, n=5
[5] = Caco-2, concentration 10 μmol/L
[6] = Caco-2, concentration 20 μmol/L
[7] = Caco-2, concentration 40 μmol/L
[8] = Caco-2, concentration 80 μmol/L
[9] = nominal 40 ng/mL, 3 freeze-thaw cycles
[10] = nominal 40 ng/mL, 7 days at -80°C
[11] = nominal 1000 ng/mL, 3 freeze-thaw cycles
[12] = nominal 1000 ng/mL, 7 days at -80°C
[13] = nominal 5000 ng/mL, 3 freeze-thaw cycles
[14] = nominal 5000 ng/mL, 7 days at -80°C
[15] = nominal 40 ng/mL, Room temperature 24h
[16] = nominal 1000 ng/mL, Room temperature 24h
[17] = nominal 5000 ng/mL, Room temperature 24h

`C[C@@H]1CC[C@H]2[C@@H](C)C(=O)O[C@@H]3O[C@@]4(C)CC[C@@H]1[C@]32OO4` [ART, Artemisinin, reference compound] showed a half-life ([1]; 100 mg/kg, t1/2, rat plasma, ART after gavage of pure ART (PU) 100 mg/kg, n = 6) of 1.1 ± 0.335 h, a half-life ([1]; 100 mg/kg, t1/2z, pure artemisinin, rat plasma, DAS 2.0, Mean of 6 rats) of 1.1 h and a half-life ([1]; 352 mg/kg, t1/2, rat plasma, component after gavage of nACTs 352 mg/kg, n = 6) of 1.76 ± 0.938 h. For the same compound, the “Cz(尾点回归值)” value ([1]; pure artemisinin, rat plasma, DAS 2.0, individual rats No1-No6) was 14.237 mg/L, the “Cell survival rate%, single replicate” value (Caco-2 cells; Caco-2, 5μmol/L) was 82.52% and 83.77% and 87.9% and 78.48% and 85.79% and 77.82% and the “Cell survival rate%, single replicate” value (Caco-2 cells; Caco-2, 10μmol/L) was 91.57% and 89.14% and 82.1% and 68.6% and 78.83% and 84.29%. The “Cell survival rate%, single replicate” value (Caco-2 cells; Caco-2, 20μmol/L) was 80.46% and 80.92% and 80.32% and 81.46% and 82.88% and 85.89%, the “Cell survival rate%, single replicate” value (Caco-2 cells; Caco-2, 40μmol/L) was 70.44% and 87.86% and 77.89% and 75.6% and 92.55% and 87.29% and the “Cell survival rate%, single replicate” value (Caco-2 cells; Caco-2, 80μmol/L) was 82.12% and 82.82% and 84.32% and 77.9% and 76.8% and 84.01%. For the same compound, the “cck-8 cell survival as fraction, single replicate” value (shortened to “cck-8 cell survival as fraction”) (Caco-2 cells; Caco-2, concentration 5 μmol/L) was 0.8252 and 0.8377 and 0.879 and 0.7848 and 0.8579 and 0.7782, the Cell survival rate% (Caco-2 cells; Caco-2, concentration 5 μmol/L) was 82.71% and the “cck-8 mean (survival fraction)” value (Caco-2 cells; Caco-2, concentration 5 μmol/L) was 0.827. The “cck-8 cell survival as fraction” value (Caco-2 cells; [5]) was 0.9157 and 0.8914 and 0.821 and 0.686 and 0.7883 and 0.8429, the Cell survival rate% (Caco-2 cells; [5]) was 82.42% and the “cck-8 mean (survival fraction)” value (Caco-2 cells; [5]) was 0.824. The “cck-8 cell survival as fraction” value (Caco-2 cells; [6]) was 0.8046 and 0.8092 and 0.8032 and 0.8146 and 0.8288 and 0.8589, the Cell survival rate% (Caco-2 cells; [6]) was 81.99% and the “cck-8 mean (survival fraction)” value (Caco-2 cells; [6]) was 0.820. The “cck-8 cell survival as fraction” value (Caco-2 cells; [7]) was 0.7044 and 0.8786 and 0.7789 and 0.756 and 0.9255 and 0.8729, the Cell survival rate% (Caco-2 cells; [7]) was 81.94% and the “cck-8 mean (survival fraction)” value (Caco-2 cells; [7]) was 0.819. The “cck-8 cell survival as fraction” value (Caco-2 cells; [8]) was 0.8212 and 0.8282 and 0.8432 and 0.779 and 0.768 and 0.8401, the Cell survival rate% (Caco-2 cells; [8]) was 81.33% and the “cck-8 mean (survival fraction)” value (Caco-2 cells; [8]) was 0.813. The “plasma concentration (plasma concentration-time curve)” value (shortened to “plasma concentration”) ([2]; 0.08 h) was 180.137, the “plasma concentration” value ([2]; 0.5 h) was 247.263 and the “plasma concentration” value ([2]; 1 h) was 173.84. For the same compound, the “plasma concentration” value ([2]; 1.5 h) was 81.963, the “plasma concentration” value ([2]; 2 h) was 51.011 and the “plasma concentration” value ([2]; 3 h) was 33.992. For the same compound, the “plasma concentration” value ([2]; 4 h) was 27.897, the Vz ([2]; po, 100 mg/kg) was 0.08 ± 0.03 L and the CL ([2]; po, 352 mg/kg) was 0.032 ± 0.018 L/h. The Vz ([2]; po, 352 mg/kg) was 0.061 ± 0.008 L, the AUC(0-inf) (in vivo; 100 mg/kg) was 418 ± 133 ng·h/mL and the AUC(0-t) (in vivo; 100 mg/kg) was 386 ± 128 ng·h/mL. For the same compound, the MRT last (in vivo; 100 mg/kg) was 1.18 ± 0.255 h, the MRT inf (in vivo; 100 mg/kg) was 1.67 ± 0.333 h and the AUC(0-inf) (in vivo; 352 mg/kg) was 816 ± 383 ng·h/mL. The AUC(0-t) (in vivo; 352 mg/kg) was 763 ± 345 ng·h/mL, the Cmax (in vivo; 352 mg/kg, Cmax) was 513 ± 186 ng/mL and the MRT last (in vivo; 352 mg/kg) was 1.71 ± 0.513 h. The MRT inf (in vivo; 352 mg/kg) was 2.54 ± 0.785 h, the Tmax (in vivo; 352 mg/kg, Tmax) was 0.388 ± 0.328 h and the parasitemia% ([3]; 5.68 mg/kg) was 73.4143% and 71.7174% and 72.6074% and 72.7168% and 72.6183%. For the same compound, the parasitemia% ([3]; 11.368 mg/kg) was 41.4175% and 45.3752% and 36.8615% and 43.5062% and 35.724%, the parasitemia% ([3]; 22.736 mg/kg) was 2.697% and 7.338% and 4.202% and 2.082% and 5.536% and the “Stability in plasma, measured concentration (mean ± SD)” value (from here on “Stability in plasma … (mean ± SD)”) ([4]; 3 freeze-thaw cycles, QC concentration 40 ng/mL) was 38.5 ± 2.35 ng/mL. For the same compound, the “Stability in plasma … (mean ± SD)” value ([4]; 3 freeze-thaw cycles, QC concentration 1000 ng/mL) was 1053 ± 29.9 ng/mL, the “Stability in plasma … (mean ± SD)” value ([4]; 3 freeze-thaw cycles, QC concentration 5000 ng/mL) was 4629 ± 113 ng/mL and the “Stability in plasma … (mean ± SD)” value ([4]; 7 days at -80°C, QC concentration 40 ng/mL) was 40.3 ± 0.80 ng/mL. For the same compound, the “Stability in plasma … (mean ± SD)” value ([4]; 7 days at -80°C, QC concentration 1000 ng/mL) was 1051 ± 29.5 ng/mL, the “Stability in plasma … (mean ± SD)” value ([4]; 7 days at -80°C, QC concentration 5000 ng/mL) was 4673 ± 65.9 ng/mL and the “Stability, measured concentration, mean ± SD” value ([4]; QC sample 40 ng/mL, 3 freeze-thaw cycles) was 38.5 ± 2.35 ng/mL. The “Stability, measured concentration, mean ± SD” value ([4]; QC sample 40 ng/mL, 7 days at -80°C) was 40.3 ± 0.80 ng/mL, the “Stability, measured concentration, mean ± SD” value ([4]; QC sample 40 ng/mL, Room temperature 24h) was 41.1 ± 1.49 ng/mL and the “Stability, measured concentration, mean ± SD” value ([4]; QC sample 1000 ng/mL, 3 freeze-thaw cycles) was 1053 ± 29.9 ng/mL. For the same compound, the “Stability, measured concentration, mean ± SD” value ([4]; QC sample 1000 ng/mL, 7 days at -80°C) was 1051 ± 29.5 ng/mL, the “Stability, measured concentration, mean ± SD” value ([4]; QC sample 1000 ng/mL, Room temperature 24h) was 1070 ± 40.9 ng/mL and the “Stability, measured concentration, mean ± SD” value ([4]; QC sample 5000 ng/mL, 3 freeze-thaw cycles) was 4629 ± 113 ng/mL. For the same compound, the “Stability, measured concentration, mean ± SD” value ([4]; QC sample 5000 ng/mL, 7 days at -80°C) was 4673 ± 65.9 ng/mL, the “Stability, measured concentration, mean ± SD” value ([4]; QC sample 5000 ng/mL, Room temperature 24h) was 5229 ± 418 ng/mL and the “Stability in plasma … (mean ± SD)” value ([4]; Room temperature 24h, QC concentration 40 ng/mL) was 41.1 ± 1.49 ng/mL. The “Stability in plasma … (mean ± SD)” value ([4]; Room temperature 24h, QC concentration 1000 ng/mL) was 1070 ± 40.9 ng/mL, the “Stability in plasma … (mean ± SD)” value ([4]; Room temperature 24h, QC concentration 5000 ng/mL) was 5229 ± 418 ng/mL and the “3 freeze-thaw cycles mean ± SD” value [4, 9] was 38.5 ± 2.35 ng/mL. For the same compound, the “7 days at -80°C mean ± SD” value [4, 10] was 40.3 ± 0.80 ng/mL, the “Room temperature 24h mean ± SD” value ([4]; nominal 40 ng/mL) was 41.1 ± 1.49 ng/mL and the “3 freeze-thaw cycles mean ± SD” value [4, 11] was 1053 ± 29.9 ng/mL. The “7 days at -80°C mean ± SD” value [4, 12] was 1051 ± 29.5 ng/mL, the “Room temperature 24h mean ± SD” value ([4]; nominal 1000 ng/mL) was 1070 ± 40.9 ng/mL and the “3 freeze-thaw cycles mean ± SD” value [4, 13] was 4629 ± 113 ng/mL. The “7 days at -80°C mean ± SD” value [4, 14] was 4673 ± 65.9 ng/mL, the “Room temperature 24h mean ± SD” value ([4]; nominal 5000 ng/mL) was 5229 ± 418 ng/mL and the “stability, Accuracy (measured versus nominal concentration)” value [4, 9] was 96.14%. For the same compound, the “stability, mean ± SD (measured concentration)” value (“stability, mean ± SD” below) [4, 9] was 38.5 ± 2.35 ng/mL and 38.46 ng/mL, the “stability, Accuracy (measured versus nominal concentration)” value [4, 10] was 100.80% and the “stability, mean ± SD” value [4, 10] was 40.3 ± 0.80 ng/mL and 40.32 ng/mL. For the same compound, the “stability, Accuracy (measured versus nominal concentration)” value [4, 15] was 102.70%, the “stability, mean ± SD” value [4, 15] was 41.1 ± 1.49 ng/mL and 41.08 ng/mL and the “stability, Accuracy (measured versus nominal concentration)” value [4, 11] was 105.28%. The “stability, mean ± SD” value [4, 11] was 1053 ± 29.9 ng/mL and 1052.79 ng/mL, the “stability, Accuracy (measured versus nominal concentration)” value [4, 12] was 105.14% and the “stability, mean ± SD” value [4, 12] was 1051 ± 29.5 ng/mL and 1051.42 ng/mL. For the same compound, the “stability, Accuracy (measured versus nominal concentration)” value [4, 16] was 106.95%, the “stability, mean ± SD” value [4, 16] was 1070 ± 40.9 ng/mL and 1069.53 ng/mL and the “stability, Accuracy (measured versus nominal concentration)” value [4, 13] was 92.59%. The “stability, mean ± SD” value [4, 13] was 4629 ± 113 ng/mL and 4629.47 ng/mL, the “stability, Accuracy (measured versus nominal concentration)” value [4, 14] was 93.45% and the “stability, mean ± SD” value [4, 14] was 4673 ± 65.9 ng/mL and 4672.51 ng/mL. The “stability, Accuracy (measured versus nominal concentration)” value [4, 17] was 104.57% and the “stability, mean ± SD” value [4, 17] was 5229 ± 418 ng/mL and 5228.53 ng/mL.
